Patent publication US20240197661A1, “ORAL DOSAGE FORMS OF METHYL HYDROGEN FUMARATE AND PRODRUGS THEREOF” (Arbor Pharmaceuticals, LLC, priority 2012, published 2024)

Key:
[1] = test system: healthy adult subjects; assay: safety and tolerability in single-dose food effect study; format: in vivo, human; conditions: single 100 mg dose, fed and fasted
Description: Twelve healthy adult volunteers (males and females) participated in the study. All twelve subjects received […] a dosage form of Example 3, once in a fed condition and once in a fasted condition, with a two-week washout between treatments. The fasted dosing was achieved by dosing the subject following an overnight fast while the fed dosing was achieved by dosing the subject after consuming a high fat-content breakfast.
All 12 subjects completed the dosing period. All adverse events were mild.

[2] = test system: subjects with moderate-to-severe plaque psoriasis; assay: 24-week placebo-controlled efficacy study in plaque psoriasis; format: in vivo, human; conditions: for patients achieving PASI-75 / patients achieving an IGA score of 0 or 1: week 24
Protocol: (§1) Study subjects were enrolled at 76 US sites. Patients had chronic plaque psoriasis for more than 6 months, PASI (Psoriasis Area and Severity Index) scores ≥12, IGA (Investigator's Global Assessment) Scores ≥3, and psoriasis BSA (Body Surface Area) ≥10%. Altogether 426 subjects were randomized in a 1:1:1:1 ratio into 4 dose arms: 400 mg QD, 400 mg BID, 600 mg BID, and placebo. A 5-week titration phase was followed by 19 weeks of treatment. The co-primary end points at week 24 were the percentages of patients achieving an at least 75% reduction of their baseline PASI (“PASI-75”) and an IGA score of ‘clear’ or ‘almost clear’ (i.e., 0 or 1).

[3] = test system: subjects with moderate-to-severe plaque psoriasis; assay: safety (adverse events) in 24-week plaque psoriasis study; format: in vivo, human
Protocol: as §1

[4] = degradation of MHF prodrugs in pH 6.0 phosphate buffer with sodium acetate
Protocol: Each prodrug was placed in a pH 6.0 phosphate buffer with multiple concentrations of sodium acetate (0.0 M, 0.1 M, 0.5 M, 2.0 M, 3.0 M, and 4.0 M) at 40° C. The presence of prodrug was measured over time up to 42 hours. The rate of prodrug degradation can be expressed according to the following formula: In (A)=In (A0)−Kobs●t, wherein A is the prodrug concentration, A0 is the prodrug concentration at time zero and Kobs is the observed slope of the curve plotting In (A) versus time (t). Thus, the higher the Kobs, the more quickly the prodrug is degrading.

effect of acetate on degradation rate compared to DMF ([4]; pH 6.0, 40° C.): more pronounced
Compound: CCN(CC)C(=O)COC(=O)/C=C/C(=O)OC [PPC-06, (N,N-Diethylcarbamoyl)methyl methyl (2E)but-2-ene-1,4-dioate]
severity of adverse events [1]: mild | tolerability during the trial [1]: well tolerated | patients achieving PASI-75 ([2]; 400 mg BID, p=0.002 vs placebo): 47.2% | patients achieving an IGA score of 0 or 1 ([2]; 400 mg BID, p=0.021 vs placebo): 41.4% | patients achieving PASI-75 ([2]; 400 mg QD, p=0.004 vs placebo): 39.7% | patients achieving an IGA score of 0 or 1 ([2]; 400 mg QD, p=0.044 vs placebo): 35.7% | patients achieving PASI-75 ([2]; 600 mg BID, p=0.004 vs placebo): 44.3% | patients achieving an IGA score of 0 or 1 ([2]; 600 mg BID, p=0.010 vs placebo): 44.4% | efficacy compared to placebo ([2]; 24 weeks of treatment, three dose strengths): significant efficacy compared to placebo | patients reporting diarrhea (TEAE) ([3]; 400 mg BID): 18% | patients reporting diarrhea (TEAE) ([3]; 400 mg QD): 7% | patients reporting diarrhea (TEAE) ([3]; 600 mg BID): 23% | flushing reported ([3]; PPC-06 treatment arms): 1-2% | subjects developing CTCAE grade 3 lymphopenia ([3]; during treatment, recovered on discontinuation): Two | new or unexpected adverse events compared to DMF drugs ([3]; in vivo): No new or unexpected adverse events | severity of most cases of diarrhea ([3]; in vivo): mild to moderate | nausea and abdominal pain reported ([3]; overall PPC-06 population): less than 10% | formation rates of both primary degradation products ([4]; 14.6 hour exposure, pH 6.0, 40° C., varying acetate concentration): increased with increasing acetate concentration | degradation rate (Kobs) as a function of acetate concentration ([4]; pH 6.0 phosphate buffer, sodium acetate 0.0-4.0 M, 40° C., up to 42 hours): increased with increasing concentrations of acetate
